# Measured values from US9533965B2, “2-arylbenzofuran-7-formamide compounds, preparation method and use thereof” (SHANGHAI INSTITUTE OF MATERIA MEDICA, CHINESE ACADEMY OF …, priority 2012, dated 2017).
# “And” between values parts separate entries of the source, which are not always exact repeats. Equal values may be shown once. Read-outs that look alike come from different tables or passages of the source.
# Experiments:
# [1] = tested on: Chinese hamster lung fibroblast cell line VC8 (BRCA2−/−); assay: In vitro cell proliferation inhibition (MTT), VC8 cells; type: cell-based; conditions: read-out: VC8 cell IC50
# [2] = tested on: wild type cell line V79; assay: In vitro cell proliferation inhibition (MTT), V79 cells; type: cell-based, Chinese hamster; conditions: Cricetulus griseus, read-out: V79 cell IC50
# [3] = compound during phase II clinical trials; cited from earlier work
# [4] = target: PARP1 (Homo sapiens, UniProt P09874); assay: PARP1 enzymatic inhibition at molecular levels (ELISA); conditions: ELISA IC50, PARP1 enzyme, molecular level
# Chain of PARP1 (P09874 whole entry): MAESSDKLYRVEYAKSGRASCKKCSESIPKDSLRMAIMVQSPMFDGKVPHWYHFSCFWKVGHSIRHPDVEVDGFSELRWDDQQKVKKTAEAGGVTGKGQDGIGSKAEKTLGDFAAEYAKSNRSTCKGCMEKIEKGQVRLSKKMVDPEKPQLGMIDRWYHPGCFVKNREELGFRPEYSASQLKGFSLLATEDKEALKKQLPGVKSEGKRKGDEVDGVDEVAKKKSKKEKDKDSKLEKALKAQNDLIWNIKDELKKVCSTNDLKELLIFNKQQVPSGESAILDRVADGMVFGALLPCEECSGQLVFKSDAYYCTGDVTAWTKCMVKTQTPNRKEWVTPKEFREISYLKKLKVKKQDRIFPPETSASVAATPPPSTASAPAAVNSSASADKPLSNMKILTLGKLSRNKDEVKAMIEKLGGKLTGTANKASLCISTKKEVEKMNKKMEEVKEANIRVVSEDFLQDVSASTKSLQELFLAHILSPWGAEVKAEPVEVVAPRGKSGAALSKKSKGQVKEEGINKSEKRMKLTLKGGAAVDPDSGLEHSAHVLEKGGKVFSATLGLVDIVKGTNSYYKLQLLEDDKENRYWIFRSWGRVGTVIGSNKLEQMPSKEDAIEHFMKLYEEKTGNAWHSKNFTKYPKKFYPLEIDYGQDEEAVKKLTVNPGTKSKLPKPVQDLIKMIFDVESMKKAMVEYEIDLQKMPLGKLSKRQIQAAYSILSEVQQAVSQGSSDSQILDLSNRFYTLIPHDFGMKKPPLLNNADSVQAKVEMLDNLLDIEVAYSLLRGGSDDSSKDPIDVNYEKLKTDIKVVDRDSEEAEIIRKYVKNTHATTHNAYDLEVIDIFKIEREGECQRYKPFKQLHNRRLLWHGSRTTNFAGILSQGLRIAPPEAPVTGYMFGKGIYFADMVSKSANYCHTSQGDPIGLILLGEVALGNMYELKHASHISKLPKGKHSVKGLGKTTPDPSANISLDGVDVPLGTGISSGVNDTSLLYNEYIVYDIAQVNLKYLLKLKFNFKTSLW
# [5] = Cricetulus griseus, V-C8, 72 h, MTT, 72 h, VC8 (BRCA2−/−)
Structure (SMILES),"IC50 [1, 5]","IC50 ([1]; MTT, 72 h, VC8 (BRCA2−/−))","IC50 ([2]; MTT, 72 h, wild type V79)","IC50 ([1]; Cricetulus griseus, V-C8, 72 h)",oral bioavailability of rats [3],"IC50 ([2]; V79, 72 h)",IC50 [4]
"NC(=O)c1cc(F)cc2cc(-c3ccc(CN4CCCC4)cc3)oc12 [5f, 5-fluoro-2-{4-[(pyrrolidin-1-yl)methyl]phenyl}benzofuran-7-carboxamide]",3360 nM,2620 nM,> 10000 nM,,,,
"O=C(c1cc(Cc2n[nH]c(=O)c3ccccc23)ccc1F)N1CCN(C(=O)C2CC2)CC1 [AZD2281, Olaparib, reference compound]",,,,820 ± 330 nM,11.1%,> 10000 nM,
"CN(C)Cc1ccc(-c2cc3cc(F)cc(C(N)=O)c3o2)cc1 [compound 5a, 5-fluoro-2-{4-[(dimethylamino)methyl]phenyl}benzofuran-7-carboxamide]",750 ± 100 nM,,> 10000 nM,,,,11.8 ± 8.9 nM
"CNCc1ccc(-c2cc3cc(F)cc(C(N)=O)c3o2)cn1 [compound 5c, 5-fluoro-2-{6-[(methylamino)methyl]-3-pyridyl}benzofuran-7-carboxamide]",,,> 10000 nM,,,,37 nM and 34.2 nM and 72 nM
"CNCc1ccc(-c2cc3cc(F)cc(C(N)=O)c3o2)nc1 [compound 5d, 5-fluoro-2-{5-[(methylamino)methyl]-2-pyridyl}benzofuran-7-carboxamide]",3270 nM,1740 nM,> 10000 nM,,,,23 nM and 27.9 nM and 58 nM
"CNCc1ccc(-c2cc3cc(F)cc(C(N)=O)c3o2)cc1F [compound 5e, 5-fluoro-2-{4-[(methylamino)methyl]-3-fluorophenyl}benzofuran-7-carboxamide]",2080 nM,1510 nM,> 10000 nM,,,,14.8 nM and 20.8 nM and 74 nM
"CN1CCN(Cc2ccc(-c3cc4cc(F)cc(C(N)=O)c4o3)cc2)CC1 [compound 5g, 5-fluoro-2-{4-[(4-methyl-1-piperazino)methyl]phenyl}benzofuran-7-carboxamide]",2080 nM,2140 nM,> 10000 nM,,,,83 nM and 105 nM and 187 nM
"NC(=O)c1cc(F)cc2cc(-c3ccc(CN4CCCCC4)cc3)oc12 [compound 5h, 5-fluoro-2-{4-[(piperidin-1-yl)methyl]phenyl}benzofuran-7-carboxamide]",2600 nM,2010 nM,> 10000 nM,,,,
"CN1CCCN(Cc2ccc(-c3cc4cc(F)cc(C(N)=O)c4o3)cc2)CC1 [compound 5i, 5-fluoro-2-{4-[(4-methyl-1-homopiperazino)methyl]phenyl}benzofuran-7-carboxamide]",,,> 10000 nM,,,,104 nM and 101 nM and 207 nM
"NC(=O)c1cc(F)cc2cc(-c3ccc(CN4CCOCC4)cc3)oc12 [compound 5j, 5-fluoro-2-{4-[(1-morpholinyl)methyl]phenyl}benzofuran-7-carboxamide]",,,> 10000 nM,,,,
"NC(=O)c1cc(F)cc2cc(-c3ccc(CN4CCSCC4)cc3)oc12 [compound 5k, 5-fluoro-2-{4-[(thiomorpholino)methyl]phenyl}benzofuran-7-carboxamide]",> 10000 nM,,> 10000 nM,,,,1060 nM and 2060 nM and 1520 nM
"NC(=O)c1cc(F)cc2cc(-c3ccc(CNC4CCNCC4)cc3)oc12 [compound 5l, 5-fluoro-2-{4-[(4-piperidyl)aminomethyl]phenyl}-benzofuran-7-carboxamide]",8310 nM,8220 nM,> 10000 nM,,,,182 nM and 107 nM and 393 nM
"NC(=O)c1cc(F)cc2cc(-c3ccc(CN[C@@H]4CCOC4)cc3)oc12 [compound 5m, (R)-5-fluoro-2-{4-[(3-tetrahydrofurylamino)methyl]phenyl}benzofuran-7-carboxamide]",1150 nM,1180 nM,> 10000 nM,,,,49 nM and 9.5 nM and 17 nM
"NC(=O)c1cc(F)cc2cc(-c3ccc(CNC4CC4)cc3)oc12 [compound 5n, 5-fluoro-2-[4-(cyclopropylaminomethyl)phenyl]benzofuran-7-carboxamide]",,,> 10000 nM,,,,18 nM and 31 nM and 73 nM
"CC(C)NCc1ccc(-c2cc3cc(F)cc(C(N)=O)c3o2)cc1 [compound 5o, 5-fluoro-2-[4-(isopropylaminomethyl)phenyl]benzofuran-7-carboxamide]",1090 nM,941 nM,> 10000 nM,,,,32 nM and 18.8 nM and 25 nM
"CNCc1ccc(-c2cc3cc(F)cc(C(N)=O)c3o2)c(F)c1 [compound 5p, 5-fluoro-2-{4-[(methylamino)methyl]-2-fluorophenyl}benzofuran-7-carboxamide]",1360 nM,1620 nM,> 10000 nM,,,,22 nM and 8.9 nM and 40 nM
"CN(C)Cc1ccc(-c2oc3c(C(N)=O)cc(F)cc3c2Cl)cc1 [compound 7a, 3-chloro-5-fluoro-2-{4-[(dimethylamino)methyl]phenyl}benzofuran-7-carboxamide]",,,,,,,9250 nM
